From publication PMC5218480 (PLoS ONE, 2017)

Test system: MV-4-11 cells
Assay: Gene expression microarray analysis (Affymetrix PrimeView) and GSEA
Type: cell-based, human
Set-up: RFU PODN (11730768_x_at) / Fold change /veh PODN (11730768_x_at) / RFU LINC00158 (11744669_a_at) / Fold change /veh LINC00158 (11744669_a_at) / RFU DUSP10 (11751237_a_at) / Fold change /veh DUSP10 (11751237_a_at) / RFU ID3 (11757404_x_at) / Fold change /veh ID3 (11757404_x_at) / RFU PLEKHG5 (11737974_s_at) / Fold change /veh PLEKHG5 (11737974_s_at) / RFU LRRC4B (11730491_at) / Fold change /veh LRRC4B (11730491_at) / RFU GIMAP4 (11747438_a_at) / Fold change /veh GIMAP4 (11747438_a_at) / RFU KRT8 (11758183_x_at) / Fold change /veh KRT8 (11758183_x_at) / RFU CNN1 (11734310_a_at) / Fold change /veh CNN1 (11734310_a_at) / RFU VPS37D (11726825_at) / Fold change /veh VPS37D (11726825_at) / RFU C10orf10 (11716522_x_at) / Fold change /veh C10orf10 (11716522_x_at) / RFU KIR2DL2 /// KIR2DL4 /// KIR2DL5A /// KIR2DL5B /// KIR2DS1 /// KIR2DS2 /// KIR2DS3 /// KIR2DS4 /// KIR3DL3 /// KIR3DL3 /// KIR3DS1 (11738374_at) / Fold change /veh KIR2DL2 /// KIR2DL4 /// KIR2DL5A /// KIR2DL5B /// KIR2DS1 /// KIR2DS2 /// KIR2DS3 /// KIR2DS4 /// KIR3DL3 /// KIR3DL3 /// KIR3DS1 (11738374_at) / RFU C1QL1 (11718748_at) / Fold change /veh C1QL1 (11718748_at) / RFU TMPRSS4 (11747572_a_at) / Fold change /veh TMPRSS4 (11747572_a_at) / RFU HAMP (11756126_x_at) / Fold change /veh HAMP (11756126_x_at) / RFU RNFT2 (11725882_a_at) / Fold change /veh RNFT2 (11725882_a_at) / RFU NR4A2 (11747474_a_at) / Fold change /veh NR4A2 (11747474_a_at) / RFU ABCC12 (11746883_a_at) / Fold change /veh ABCC12 (11746883_a_at) / RFU TMEM136 (11760407_x_at) / Fold change /veh TMEM136 (11760407_x_at) / RFU CLDN22 /// WWC2 (11732394_at) / Fold change /veh CLDN22 /// WWC2 (11732394_at) / RFU HLA-DPB1 (11760878_x_at) / Fold change /veh HLA-DPB1 (11760878_x_at) / RFU SPINT1 (11716480_a_at) / Fold change /veh SPINT1 (11716480_a_at) / RFU GAP43 (11754022_s_at) / Fold change /veh GAP43 (11754022_s_at) / RFU A4GNT (11735810_at) / Fold change /veh A4GNT (11735810_at) / RFU PRB3 (11715151_x_at) / Fold change /veh PRB3 (11715151_x_at) / RFU TUBB4B (11761932_at) / Fold change /veh TUBB4B (11761932_at) / RFU CAPN14 (11732068_a_at) / Fold change /veh CAPN14 (11732068_a_at) / RFU TMCC2 (11721928_a_at) / Fold change /veh TMCC2 (11721928_a_at) / RFU IRGQ (11745062_a_at) / Fold change /veh IRGQ (11745062_a_at) / RFU FAM174B (11720279_a_at) / Fold change /veh FAM174B (11720279_a_at) / RFU TMPRSS4 (11748680_a_at) / Fold change /veh TMPRSS4 (11748680_a_at) / RFU FAM212B (11763350_a_at) / Fold change /veh FAM212B (11763350_a_at) / RFU PLEKHG5 (11743358_a_at) / Fold change /veh PLEKHG5 (11743358_a_at) / RFU ZSCAN30 (11745921_a_at) / Fold change /veh ZSCAN30 (11745921_a_at) / RFU CMKLR1 (11741424_a_at) / Fold change /veh CMKLR1 (11741424_a_at) / RFU LOC101060620 /// MAPK8IP1 (11723275_at) / Fold change /veh LOC101060620 /// MAPK8IP1 (11723275_at) / RFU SPTSSB (11747773_x_at) / Fold change /veh SPTSSB (11747773_x_at) / RFU PRSS12 (11739890_at) / Fold change /veh PRSS12 (11739890_at) / RFU BIN1 (11741810_x_at) / Fold change /veh BIN1 (11741810_x_at) / RFU WNT11 (11732464_a_at) / Fold change /veh WNT11 (11732464_a_at) / RFU C10orf10 (11716521_a_at) / Fold change /veh C10orf10 (11716521_a_at) / RFU C5orf56 (11738089_at) / Fold change /veh C5orf56 (11738089_at) / RFU CYB561 (11721691_x_at) / Fold change /veh CYB561 (11721691_x_at) / RFU ANKRD19P (11752326_a_at) / Fold change /veh ANKRD19P (11752326_a_at) / RFU OR2T12 /// OR2T33 /// OR2T8 (11738714_s_at) / Fold change /veh OR2T12 /// OR2T33 /// OR2T8 (11738714_s_at) / RFU VCAN (11748164_a_at) / Fold change /veh VCAN (11748164_a_at) / RFU JSRP1 (11732532_at) / Fold change /veh JSRP1 (11732532_at) / RFU KRTAP10-11 (11738290_x_at) / Fold change /veh KRTAP10-11 (11738290_x_at) / RFU MYO3A (11730013_a_at) / Fold change /veh MYO3A (11730013_a_at) / RFU EBF3 (11725865_a_at) / Fold change /veh EBF3 (11725865_a_at) / RFU CAMK2N1 (11719241_x_at) / Fold change /veh CAMK2N1 (11719241_x_at) / RFU C5orf56 (11738088_a_at) / Fold change /veh C5orf56 (11738088_a_at) / RFU OLFML3 (11715873_a_at) / Fold change /veh OLFML3 (11715873_a_at) / RFU LOC100653217 /// NTM (11731650_a_at) / Fold change /veh LOC100653217 /// NTM (11731650_a_at) / RFU MAPK11 (11762145_a_at) / Fold change /veh MAPK11 (11762145_a_at) / RFU FIZ1 (11724087_x_at) / Fold change /veh FIZ1 (11724087_x_at) / RFU OASL (11726364_x_at) / Fold change /veh OASL (11726364_x_at) / RFU SOX15 (11748057_x_at) / Fold change /veh SOX15 (11748057_x_at) / RFU CD79A (11719716_a_at) / Fold change /veh CD79A (11719716_a_at) / RFU HIST1H1D (11736915_at) / Fold change /veh HIST1H1D (11736915_at) / RFU CASKIN2 (11723855_a_at) / Fold change /veh CASKIN2 (11723855_a_at) / RFU LOC730098 (11760151_x_at) / Fold change /veh LOC730098 (11760151_x_at) / RFU OR4N2 (11742367_at) / Fold change /veh OR4N2 (11742367_at) / RFU PRRT2 (11749266_a_at) / Fold change /veh PRRT2 (11749266_a_at) / RFU SNX32 (11753110_a_at) / Fold change /veh SNX32 (11753110_a_at) / RFU CDHR5 (11726645_a_at) / Fold change /veh CDHR5 (11726645_a_at) / RFU RCAN1 (11760418_a_at) / Fold change /veh RCAN1 (11760418_a_at) / RFU FAM167A (11723789_a_at) / Fold change /veh FAM167A (11723789_a_at) / RFU FAM26E (11764081_at) / Fold change /veh FAM26E (11764081_at) / RFU ISYNA1 (11749810_s_at) / Fold change /veh ISYNA1 (11749810_s_at) / RFU ACY1 (11761880_at) / Fold change /veh ACY1 (11761880_at) / RFU 11764098_at / Fold change /veh 11764098_at / RFU SAMD14 (11745864_x_at) / Fold change /veh SAMD14 (11745864_x_at) / RFU NPB (11741838_a_at) / Fold change /veh NPB (11741838_a_at) / RFU TMPRSS6 (11731388_a_at) / Fold change /veh TMPRSS6 (11731388_a_at) / RFU KRTAP10-2 (11738614_at) / Fold change /veh KRTAP10-2 (11738614_at) / RFU ARHGAP8 /// PRR5-ARHGAP8 (11727945_x_at) / Fold change /veh ARHGAP8 /// PRR5-ARHGAP8 (11727945_x_at) / RFU KRTAP5-7 /// NADSYN1 (11734609_at) / Fold change /veh KRTAP5-7 /// NADSYN1 (11734609_at) / RFU RASL12 (11751679_a_at) / Fold change /veh RASL12 (11751679_a_at) / RFU CDKN2B (11736163_a_at) / Fold change /veh CDKN2B (11736163_a_at) / RFU PRF1 (11729649_at) / Fold change /veh PRF1 (11729649_at) / RFU, ZNF638 /// ZNF638-IT1 / Fold change vs veh, ZNF638 /// ZNF638-IT1 / RFU, PANK3 / Fold change vs veh, PANK3 / RFU, SH3YL1 / Fold change vs veh, SH3YL1 / RFU, ZEB2 / Fold change vs veh, ZEB2 / RFU, NRIP1 / Fold change vs veh, NRIP1 / RFU, PTTG1IP / Fold change vs veh, PTTG1IP / RFU, CAPN2 / Fold change vs veh, CAPN2 / RFU, MED14 / Fold change vs veh, MED14 / RFU, SNORA58 / Fold change vs veh, SNORA58 / RFU, C1orf63 / Fold change vs veh, C1orf63 / RFU, LRRFIP1 / Fold change vs veh, LRRFIP1 / RFU, NDUFAF7 / Fold change vs veh, NDUFAF7 / RFU, SLC12A2 / Fold change vs veh, SLC12A2 / RFU, IBTK / Fold change vs veh, IBTK / RFU, ESF1 / Fold change vs veh, ESF1 / Fold change vs veh, TMEM50B / RFU, TAOK1 / Fold change vs veh, TAOK1 / RFU, ACBD3 / Fold change vs veh, ACBD3 / RFU, TMA16 / Fold change vs veh, TMA16 / RFU, RWDD3 / Fold change vs veh, RWDD3 / RFU, BCAT1 / Fold change vs veh, BCAT1 / RFU, EDEM3 / Fold change vs veh, EDEM3 / RFU, TMEM33 / Fold change vs veh, TMEM33 / RFU, WDR75 / Fold change vs veh, WDR75 / RFU, AHCTF1 / Fold change vs veh, AHCTF1 / RFU, TFRC / Fold change vs veh, TFRC / RFU, ZDHHC17 / Fold change vs veh, ZDHHC17 / RFU, NOM1 / Fold change vs veh, NOM1 / RFU, ARL8B / Fold change vs veh, ARL8B / RFU, ZBTB11 / Fold change vs veh, ZBTB11 / RFU, TAMM41 / Fold change vs veh, TAMM41 / RFU, KIAA1704 /// LOC100996395 / Fold change vs veh, KIAA1704 /// LOC100996395 / RFU, ING1 / Fold change vs veh, ING1 / RFU, TRMT61B / Fold change vs veh, TRMT61B / RFU, FUBP3 / Fold change vs veh, FUBP3 / RFU, TP53 / Fold change vs veh, TP53 / RFU, TNKS2 / Fold change vs veh, TNKS2 / RFU, ZFP14 / Fold change vs veh, ZFP14 / RFU, ACTR2 / Fold change vs veh, ACTR2 / RFU, PPP3R1 / Fold change vs veh, PPP3R1 / RFU, PIK3R1 / Fold change vs veh, PIK3R1 / RFU, HNRNPA1 / Fold change vs veh, HNRNPA1 / RFU, RNF170 / Fold change vs veh, RNF170 / RFU, ZNF28 / Fold change vs veh, ZNF28 / RFU, RNGTT / Fold change vs veh, RNGTT / RFU, OGT / Fold change vs veh, OGT / RFU, BRD1 / Fold change vs veh, BRD1 / RFU, MARS / Fold change vs veh, MARS / RFU, ZNF655 / Fold change vs veh, ZNF655 / RFU, FAHD1 / Fold change vs veh, FAHD1 / RFU, BDP1 / Fold change vs veh, BDP1 / RFU, LRRCC1 / Fold change vs veh, LRRCC1 / RFU, ARID1A / Fold change vs veh, ARID1A / RFU, ZNF146 / Fold change vs veh, ZNF146 / RFU, ZNF330 / Fold change vs veh, ZNF330 / RFU, GPN3 / Fold change vs veh, GPN3 / RFU, C9orf123 / Fold change vs veh, C9orf123 / RFU, N4BP2L2 / Fold change vs veh, N4BP2L2 / RFU, ARFIP1 / Fold change vs veh, ARFIP1 / RFU, FAM179B / Fold change vs veh, FAM179B / RFU, BCL10 / Fold change vs veh, BCL10 / RFU, UHRF1BP1L / Fold change vs veh, UHRF1BP1L / RFU, BET1 / Fold change vs veh, BET1 / RFU, CNOT2 / Fold change vs veh, CNOT2 / RFU, ZNF268 / Fold change vs veh, ZNF268 / Fold change vs veh, ZNF507 / RFU, DGCR2 / Fold change vs veh, DGCR2 / RFU, WDSUB1 / Fold change vs veh, WDSUB1 / Fold change vs veh, HSP90B1 /// MIR3652 / RFU, ADSS / Fold change vs veh, ADSS / RFU, GK / Fold change vs veh, GK / RFU, ZNF148 / Fold change vs veh, ZNF148 / RFU, TAF9 / Fold change vs veh, TAF9 / RFU, SLC1A5 / Fold change vs veh, SLC1A5 / RFU, SLMO2 / Fold change vs veh, SLMO2 / RFU, ABCC4 / Fold change vs veh, ABCC4 / RFU, LOC101060439 /// RAP1B / Fold change vs veh, LOC101060439 /// RAP1B / RFU, RFX7 / Fold change vs veh, RFX7 / RFU, GTPBP10 / Fold change vs veh, GTPBP10 / RFU, CNEP1R1 / Fold change vs veh, CNEP1R1 / RFU, BIVM-ERCC5 /// ERCC5 / Fold change vs veh, BIVM-ERCC5 /// ERCC5 / RFU, ILF3 / Fold change vs veh, ILF3 / RFU 11762660_at / Fold change /veh 11762660_at / RFU VCAN (11757783_s_at) / Fold change /veh VCAN (11757783_s_at) / RFU DDX43 (11728927_at) / Fold change /veh DDX43 (11728927_at) / RFU KRT8 (11758188_x_at) / Fold change /veh KRT8 (11758188_x_at) / RFU NKD1 (11759106_at) / Fold change /veh NKD1 (11759106_at) / RFU SRD5A1 (11742802_a_at) / Fold change /veh SRD5A1 (11742802_a_at) / RFU TPSAB1 /// TPSB2 (11721975_s_at) / Fold change /veh TPSAB1 /// TPSB2 (11721975_s_at) / RFU GSTM3 (11746129_a_at) / Fold change /veh GSTM3 (11746129_a_at) / RFU IL23R (11737362_x_at) / Fold change /veh IL23R (11737362_x_at) / RFU TMEM51 (11727254_a_at) / Fold change /veh TMEM51 (11727254_a_at) / RFU PIWIL2 (11732686_x_at) / Fold change /veh PIWIL2 (11732686_x_at) / RFU ORM1 (11744905_x_at) / Fold change /veh ORM1 (11744905_x_at) / RFU CCDC152 (11743942_at) / Fold change /veh CCDC152 (11743942_at) / RFU ECM1 (11717891_a_at) / Fold change /veh ECM1 (11717891_a_at) / RFU IL23R (11748794_a_at) / Fold change /veh IL23R (11748794_a_at) / RFU TNFAIP8L3 (11732012_x_at) / Fold change /veh TNFAIP8L3 (11732012_x_at) / RFU MBOAT4 (11741988_at) / Fold change /veh MBOAT4 (11741988_at) / RFU 11764193_at / Fold change /veh 11764193_at / RFU TMEM53 (11763286_at) / Fold change /veh TMEM53 (11763286_at) / RFU MAGEB2 (11727129_at) / Fold change /veh MAGEB2 (11727129_at) / RFU TMEM200A (11744735_a_at) / Fold change /veh TMEM200A (11744735_a_at) / RFU CCDC152 (11751479_a_at) / Fold change /veh CCDC152 (11751479_a_at) / RFU FAM211A (11726209_a_at) / Fold change /veh FAM211A (11726209_a_at) / RFU RGS16 (11746705_a_at) / Fold change /veh RGS16 (11746705_a_at) / RFU VCAN (11755009_s_at) / Fold change /veh VCAN (11755009_s_at) / RFU RHOB (11743442_s_at) / Fold change /veh RHOB (11743442_s_at) / RFU RGS16 (11720943_a_at) / Fold change /veh RGS16 (11720943_a_at) / RFU RGS16 (11720944_at) / Fold change /veh RGS16 (11720944_at) / RFU, VPS4B / Fold change vs veh, VPS4B / RFU, CREB1 / Fold change vs veh, CREB1 / RFU, DNAJC13 / Fold change vs veh, DNAJC13 / RFU, GNAQ / Fold change vs veh, GNAQ / RFU, CDK5R1 / Fold change vs veh, CDK5R1 / RFU, ZRANB3 / Fold change vs veh, ZRANB3 / RFU, CUL4A / Fold change vs veh, CUL4A / RFU, CCNY / Fold change vs veh, CCNY / RFU, UFL1 / Fold change vs veh, UFL1 / RFU, COG3 / Fold change vs veh, COG3 / RFU, DIAPH2 / Fold change vs veh, DIAPH2 / RFU, SKA2 / Fold change vs veh, SKA2 / RFU, AFF3 / Fold change vs veh, AFF3 / RFU, LMF1 / Fold change vs veh, LMF1 / RFU, IPO11 / Fold change vs veh, IPO11 / RFU, DFFB / Fold change vs veh, DFFB / RFU, FOXP1 / Fold change vs veh, FOXP1 / RFU, CARD8 / Fold change vs veh, CARD8 / RFU, STRN3 / Fold change vs veh, STRN3 / RFU, ADK / Fold change vs veh, ADK / RFU, RASSF2 / Fold change vs veh, RASSF2 / RFU, WIPF1 / Fold change vs veh, WIPF1 / RFU, LARP1B / Fold change vs veh, LARP1B / RFU, RASA1 / Fold change vs veh, RASA1 / RFU, RB1 / Fold change vs veh, RB1 / RFU, PPFIA1 / Fold change vs veh, PPFIA1 / RFU, MAT2A / Fold change vs veh, MAT2A / RFU, CCT5 / Fold change vs veh, CCT5 / RFU, WDR92 / Fold change vs veh, WDR92 / RFU, CUX1 / Fold change vs veh, CUX1 / RFU, TTC7A / Fold change vs veh, TTC7A / RFU, TMEM135 / Fold change vs veh, TMEM135 / RFU, DEPTOR / Fold change vs veh, DEPTOR / RFU, CPM / Fold change vs veh, CPM / RFU, DNAJB6 / Fold change vs veh, DNAJB6 / RFU, CACNA2D3 / Fold change vs veh, CACNA2D3 / RFU, DTX4 / Fold change vs veh, DTX4 / RFU, TFCP2 / Fold change vs veh, TFCP2 / RFU, GMCL1 /// GMCL1P1 / Fold change vs veh, GMCL1 /// GMCL1P1 / RFU, AEBP2 / Fold change vs veh, AEBP2 / RFU, SNHG1 /// SNORD22 /// SNORD25 /// SNORD26 /// SNORD27 /// SNORD28 /// SNORD29 /// SNORD31 / Fold change vs veh, SNHG1 /// SNORD22 /// SNORD25 /// SNORD26 /// SNORD27 /// SNORD28 /// SNORD29 /// SNORD31 / Fold change (Aza/veh), C12orf56 (ProbeSet 11735607_a_at) / Fold change (ACY-1035/veh), C12orf56 (ProbeSet 11735607_a_at) / Fold change (Aza/veh), FGFR1OP (ProbeSet 11751329_s_at) / Fold change (ACY-1035/veh), FGFR1OP (ProbeSet 11751329_s_at) / Fold change (Aza/veh), VPS36 (ProbeSet 11739960_a_at) / Fold change (ACY-1035/veh), VPS36 (ProbeSet 11739960_a_at) / RFU SYPL1 (11715823_x_at) / Fold change /veh SYPL1 (11715823_x_at) / RFU IGFBP7 (11715501_s_at) / Fold change /veh IGFBP7 (11715501_s_at) / RFU REEP3 (11722064_at) / Fold change /veh REEP3 (11722064_at) / RFU IGLL1 (11728026_x_at) / Fold change /veh IGLL1 (11728026_x_at): dose or concentration left out as unconfirmed
Conditions: ProbeSet 11725787_a_at; LIST B

## Nc1ccc(-c2cccs2)cc1NC(=O)c1ccc2c(c1)cc(C1CC1)n2CCN1CCOCC1 [ACY-1035]
  Fold change vs veh, TMA16: 0.86
